PubChem BioAssay AID248 (DTP/NCI, 2004)
Several values for one entry are separate records, joined by “and”; a condition that tells them apart may be missing. Identical values can stand only once. Inconclusive results and toxic doses are left out. No stated cut-off is given here; in the data, active means T/C of 150% or more; inactive means T/C below 125%.

Tested on: L1210 leukemia ip in BDF1 mice, survival T/C
Test: NCI In Vivo Anticancer Drug Screen. Data for tumor model L1210 Leukemia (intraperitoneal) in B6D2F1 (BDF1) mice
Conditions: endpoint: mean survival time, higher = longer survival
Method in brief: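 Tumor was transplanted into mice, which were then dosed with test compound or vehicle alone. Survival was recorded for each group, and the treated figure was expressed relative to the control figure.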

[1] = dose: 100.0 mg/kg/injection, schedule: Q01DX001 (ip), vehicle: saline
[2] = dose: 200.0 mg/kg/injection, schedule: Q01DX001 (ip), vehicle: saline
[3] = dose: 100.0 mg/kg/injection, schedule: Q04DX003 (ip), vehicle: Klucel (hydroxypropylcellulose) (HPC)
[4] = dose: 200.0 mg/kg/injection, schedule: Q04DX003 (ip), vehicle: Klucel (hydroxypropylcellulose) (HPC)
[5] = dose: 400.0 mg/kg/injection, schedule: Q04DX003 (ip), vehicle: Klucel (hydroxypropylcellulose) (HPC)
[6] = dose: 25.0 mg/kg/injection, schedule: Q01DX009 (ip), vehicle: Klucel (hydroxypropylcellulose) (HPC)
[7] = dose: 50.0 mg/kg/injection, schedule: Q01DX009 (ip), vehicle: Klucel (hydroxypropylcellulose) (HPC)
[8] = dose: 100.0 mg/kg/injection, schedule: Q01DX009 (ip), vehicle: Klucel (hydroxypropylcellulose) (HPC)
[9] = dose: 50.0 mg/kg/injection, schedule: Q01DX009 (ip), vehicle: saline with Tween-80
[10] = dose: 50.0 mg/kg/injection, schedule: Q04DX002 (ip), vehicle: saline with Tween-80
[11] = dose: 100.0 mg/kg/injection, schedule: Q04DX002 (ip), vehicle: saline with Tween-80
[12] = dose: 200.0 mg/kg/injection, schedule: Q04DX002 (ip), vehicle: saline with Tween-80
[13] = dose: 100.0 mg/kg/injection, schedule: Q04DX003 (ip), vehicle: saline with Tween-80
[14] = dose: 200.0 mg/kg/injection, schedule: Q04DX003 (ip), vehicle: saline with Tween-80
[15] = dose: 400.0 mg/kg/injection, schedule: Q04DX003 (ip), vehicle: saline with Tween-80
[16] = dose: 100.0 mg/kg/injection, schedule: Q04DX003 (ip), vehicle: saline
[17] = dose: 200.0 mg/kg/injection, schedule: Q04DX003 (ip), vehicle: saline
[18] = dose: 200.0 mg/kg/injection, schedule: Q01DX009 (ip), vehicle: Klucel (hydroxypropylcellulose) (HPC)
[19] = dose: 400.0 mg/kg/injection, schedule: Q01DX009 (ip), vehicle: Klucel (hydroxypropylcellulose) (HPC)

Measured: T/C

CN=C(NC)c1cccc(NC(=O)Nc2ccc(NC(=O)Nc3cccc(C(=NC)NC)c3)cc2)c1
inactive: dose: 2.3 mg/kg/injection, schedule: Q01DX Z (ip), vehicle: carboxymethylcellulose (CMC) 93 % of control | dose: 3.5 mg/kg/injection, schedule: Q01DX Z (ip), vehicle: carboxymethylcellulose (CMC) 97 % of control | dose: 5.3 mg/kg/injection, schedule: Q01DX Z (ip), vehicle: carboxymethylcellulose (CMC) 95 % of control | dose: 5.5 mg/kg/injection, schedule: Q01DX Z (ip), vehicle: carboxymethylcellulose (CMC) 96 % of control | dose: 8.0 mg/kg/injection, schedule: Q01DX Z (ip), vehicle: carboxymethylcellulose (CMC) 97 % of control | dose: 8.3 mg/kg/injection, schedule: Q01DX Z (ip), vehicle: carboxymethylcellulose (CMC) 98 % of control | dose: 12.5 mg/kg/injection, schedule: Q01DX Z (ip), vehicle: carboxymethylcellulose (CMC) 101 % of control | dose: 18.75 mg/kg/injection, schedule: Q01DX Z (ip), vehicle: carboxymethylcellulose (CMC) 115 % of control

O=[N+]([O-])/C=C\C(Cl)(Cl)Cl
inactive: dose: 6.25 mg/kg/injection, schedule: Q01DX009 (ip), vehicle: saline with Tween-80 96 % of control | dose: 12.5 mg/kg/injection, schedule: Q01DX009 (ip), vehicle: saline with Tween-80 87 % of control

O=C1C2CCC1C(N1CCCC1)CC2 (stereo not drawn)
inactive: dose: 75.0 mg/kg/injection, schedule: Q01DX001 (ip), vehicle: saline 101 % of control | dose: 150.0 mg/kg/injection, schedule: Q01DX001 (ip), vehicle: saline 104 % of control

CCCCCCCCCCCCCCSCCO
inactive: dose: 100.0 mg/kg/injection, schedule: Q01DX009 (ip), vehicle: carboxymethylcellulose (CMC) 103 % of control | dose: 200.0 mg/kg/injection, schedule: Q01DX009 (ip), vehicle: carboxymethylcellulose (CMC) 102 % of control

O=c1cccc(CCc2ccccc2)[nH]1
inactive: [1] 100 % of control | [2] 95 % of control | dose: 400.0 mg/kg/injection, schedule: Q01DX001 (ip), vehicle: saline 105 % of control

C[Si](C)Cc1cccc(F)c1
inactive: [3] 105 % of control | [4] 105 % of control | [5] 100 % of control

CC(C)(C)CC(C)(C)c1ccc(OCCOC(=O)c2ccccc2C(=O)O)cc1
inactive: [6] 97 % of control | [7] 105 % of control | [8] 94 % of control

Cc1cccc(C)c1NC(=O)NS(=O)(=O)c1ccccc1
inactive: [9] 90 % of control | dose: 100.0 mg/kg/injection, schedule: Q01DX009 (ip), vehicle: saline with Tween-80 100 % of control | dose: 100.0 mg/kg/injection, schedule: Q04DX003 (ip), vehicle: acetone 95 % of control | dose: 200.0 mg/kg/injection, schedule: Q01DX009 (ip), vehicle: saline with Tween-80 95 % of control | dose: 200.0 mg/kg/injection, schedule: Q04DX003 (ip), vehicle: acetone 103 % of control

CC(C)c1ccccc1NC1=NCCO1
inactive: dose: 12.5 mg/kg/injection, schedule: Q01DX009 (ip), vehicle: Klucel (hydroxypropylcellulose) (HPC) 86 % of control | [6] 89 % of control | dose: 25.0 mg/kg/injection, schedule: Q04DX002 (ip), vehicle: saline with Tween-80 101 % of control | [7] 96 % of control and 89 % of control | [10] 96 % of control | [11] 86 % of control | [12] 86 % of control

Cc1ccc2nc[nH]c(=O)c2c1
inactive: dose: 100.0 mg/kg/injection, schedule: Q04DX002 (ip), vehicle: Klucel (hydroxypropylcellulose) (HPC) 106 % of control | dose: 200.0 mg/kg/injection, schedule: Q04DX002 (ip), vehicle: Klucel (hydroxypropylcellulose) (HPC) 103 % of control | dose: 400.0 mg/kg/injection, schedule: Q04DX002 (ip), vehicle: Klucel (hydroxypropylcellulose) (HPC) 103 % of control

CC(=O)N/N=C/C=C/c1ccccc1
inactive: dose: 25.0 mg/kg/injection, schedule: Q01DX009 (ip), vehicle: saline with Tween-80 95 % of control | [9] 103 % of control

c1ccc2c(c1)Cc1cc(NC3=NCCO3)ccc1-2
inactive: [10] 93 % of control | [11] 100 % of control | [13] 101 % of control | [12] 104 % of control | [14] 89 % of control | dose: 400.0 mg/kg/injection, schedule: Q04DX002 (ip), vehicle: saline with Tween-80 93 % of control | [15] 87 % of control

C/C=C\CC(C(C)=O)C(=O)OCC (stereo not drawn)
inactive: dose: 75.0 mg/kg/injection, schedule: Q01DX009 (ip), vehicle: saline 92 % of control | [16] 105 % of control | dose: 150.0 mg/kg/injection, schedule: Q01DX009 (ip), vehicle: saline 92 % of control | [17] 91 % of control | dose: 300.0 mg/kg/injection, schedule: Q01DX009 (ip), vehicle: saline 97 % of control | dose: 400.0 mg/kg/injection, schedule: Q04DX003 (ip), vehicle: saline 104 % of control

COc1ccc(C(=O)NC(=S)Nc2cccc(Cl)c2)cc1
inactive: [8] 91 % of control | [3] 94 % of control | [18] 98 % of control | [4] 91 % of control | [19] 87 % of control | [5] 93 % of control

CCC(=O)Nc1cccc(OC(=O)NC(C)CC)c1 (stereo not drawn)
inactive: [13] 93 % of control | [14] 97 % of control | [15] 92 % of control

CC(C)(C)NC(=O)Nc1cccc(O)c1
inactive: [8] 95 % of control | [18] 100 % of control | [19] 104 % of control

O=C(NC1CCCCC1)Oc1cc(CCl)cc(CCl)c1
inactive: [7] 112 % of control | [8] 112 % of control

CCC(CC)(COC(C)=O)C[N+](C)(C)C
inactive: [1] 103 % of control | [16] 94 % of control | [2] 95 % of control | [17] 102 % of control

CC(O)C(O)C1OC(=O)C1O (stereo not drawn)
inactive: dose: 100.0 mg/kg/injection, schedule: Q01DX009 (ip), vehicle: saline 94 % of control and 98 % of control | dose: 200.0 mg/kg/injection, schedule: Q01DX009 (ip), vehicle: saline 100 % of control and 113 % of control | dose: 400.0 mg/kg/injection, schedule: Q01DX009 (ip), vehicle: saline 104 % of control and 94 % of control

Cc1ccc(S(=O)(=O)[O][Sn-]([CH2]c2ccccc2)([CH2]c2ccccc2)[CH2]c2ccccc2)cc1
inactive: dose: 50.0 mg/kg/injection, schedule: Q01DX009 (ip), vehicle: olive oil, sesame oil, peanut oil 97 % of control | dose: 100.0 mg/kg/injection, schedule: Q01DX009 (ip), vehicle: olive oil, sesame oil, peanut oil 92 % of control | dose: 100.0 mg/kg/injection, schedule: Q04DX002 (ip), vehicle: alcohol 97 % of control | dose: 200.0 mg/kg/injection, schedule: Q04DX002 (ip), vehicle: alcohol 90 % of control

NC(N)=N/N=C(/c1ccccc1)c1ccc(Cl)cc1
inactive: dose: 15.0 mg/kg/injection, schedule: Q01DX Z (ip), vehicle: saline 90 % of control | dose: 30.0 mg/kg/injection, schedule: Q01DX Z (ip), vehicle: saline 92 % of control | dose: 60.0 mg/kg/injection, schedule: Q01DX Z (ip), vehicle: saline 97 % of control | dose: 60.0 mg/kg/injection, schedule: Q01DX Z (oral), vehicle: saline 95 % of control | dose: 120.0 mg/kg/injection, schedule: Q01DX Z (ip), vehicle: saline 110 % of control | dose: 120.0 mg/kg/injection, schedule: Q01DX Z (oral), vehicle: saline 92 % of control | dose: 240.0 mg/kg/injection, schedule: Q01DX Z (ip), vehicle: saline 108 % of control | dose: 240.0 mg/kg/injection, schedule: Q01DX Z (oral), vehicle: saline 107 % of control | dose: 480.0 mg/kg/injection, schedule: Q01DX010 (oral), vehicle: saline 96 % of control | dose: 960.0 mg/kg/injection, schedule: Q01DX010 (oral), vehicle: saline 91 % of control
